Among the data in patent publication US10857193B2, “Extract formulation of Opuntia ficus indica” (FINZELBERG GMBH & CO. KG, priority 2007, dated 2020) are hypoglycaemic effect values, retold here.

For the assay, the system named is blood glucose. Briefly: Oral glucose tolerance test (oGTT), hypoglycaemic effect in an animal model. In kind it is in vivo, Wistar rats. Particulars: oGTT in rats, result in words; FIG. 3 expressed as percent AUC vs control, n=5-6 per group. Here is the method: A standard means of testing extracts or novel chemical compounds for effects on blood sugar levels is the oGTT (Verspohl, 2002). This involves administering the extract, a blind control or a known anti-diabetic to different groups of a rat population and administering an […] dose of glucose to a sub-group of each group. The extracts were administered 30 minutes before the glucose. Blood samples were taken sublingually 0, 15, 30, 60 and 120 minutes after glucose administration or at 0, 30, 60, 120 and 180 minutes for baseline blood sugar levels. The sampling schedule described served both to track the effect of the extracts on baseline blood sugar levels over a longer period and to track the effect on blood sugar levels following a glucose load.
All of the tested extracts, the blind control and the glibenclamide reference oral anti-diabetic contained propylene glycol as a solubilising agent and were administered orally via a feeding tube. […]
The samples were centrifuged at 8600 U/min for 10 minutes. The plasma supernatant was then analysed using an autoanalyser (Merck, Darmstadt). […]
Concentrations and kinetic data were analysed in Graphpad 4.0 (San Diego, USA) using one-way variance analysis (ANOVA) and the Newman-Keuls multiple comparison test. The area under the curve (AUC) was determined using the trapezoidal method without extrapolation beyond the final sampling point.

As for `COc1ccc(Cl)cc1C(=O)NCCc1ccc(S(=O)(=O)NC(=O)NC2CCCCC2)cc1` [glibenclamide, Glibenclamide], the hypoglycaemic effect entry is listed as “hypoglycaemic effect”.
